6 compounds from ChEMBL document CHEMBL5230098, “The ups and downs of Poly(ADP-ribose) Polymerase-1 inhibitors in cancer therapy-Current progress and future direction” (Eur J Med Chem, 2020) can be followed below.

A value given as a limit tells only on which side of the number the result lay.

For data set [1], the target named is Poly [ADP-ribose] polymerase 1 (Homo sapiens, UniProt P09874). Nature of the data set: Inhibition of PARP1 (unknown origin).
Data set [2] can be described thus: Aqueous solubility of compound. The format is physicochemical.
Data set [3] can be described thus: Oral bioavailability in Sprague-Dawley rat at 4 mg/kg administered as single dose measured for 24 hrs by HPLC/tandem mass spectrometry. The format is ADME, organism-based. The settings on record: in vivo.

Chain of Poly [ADP-ribose] polymerase 1 (P09874 whole entry): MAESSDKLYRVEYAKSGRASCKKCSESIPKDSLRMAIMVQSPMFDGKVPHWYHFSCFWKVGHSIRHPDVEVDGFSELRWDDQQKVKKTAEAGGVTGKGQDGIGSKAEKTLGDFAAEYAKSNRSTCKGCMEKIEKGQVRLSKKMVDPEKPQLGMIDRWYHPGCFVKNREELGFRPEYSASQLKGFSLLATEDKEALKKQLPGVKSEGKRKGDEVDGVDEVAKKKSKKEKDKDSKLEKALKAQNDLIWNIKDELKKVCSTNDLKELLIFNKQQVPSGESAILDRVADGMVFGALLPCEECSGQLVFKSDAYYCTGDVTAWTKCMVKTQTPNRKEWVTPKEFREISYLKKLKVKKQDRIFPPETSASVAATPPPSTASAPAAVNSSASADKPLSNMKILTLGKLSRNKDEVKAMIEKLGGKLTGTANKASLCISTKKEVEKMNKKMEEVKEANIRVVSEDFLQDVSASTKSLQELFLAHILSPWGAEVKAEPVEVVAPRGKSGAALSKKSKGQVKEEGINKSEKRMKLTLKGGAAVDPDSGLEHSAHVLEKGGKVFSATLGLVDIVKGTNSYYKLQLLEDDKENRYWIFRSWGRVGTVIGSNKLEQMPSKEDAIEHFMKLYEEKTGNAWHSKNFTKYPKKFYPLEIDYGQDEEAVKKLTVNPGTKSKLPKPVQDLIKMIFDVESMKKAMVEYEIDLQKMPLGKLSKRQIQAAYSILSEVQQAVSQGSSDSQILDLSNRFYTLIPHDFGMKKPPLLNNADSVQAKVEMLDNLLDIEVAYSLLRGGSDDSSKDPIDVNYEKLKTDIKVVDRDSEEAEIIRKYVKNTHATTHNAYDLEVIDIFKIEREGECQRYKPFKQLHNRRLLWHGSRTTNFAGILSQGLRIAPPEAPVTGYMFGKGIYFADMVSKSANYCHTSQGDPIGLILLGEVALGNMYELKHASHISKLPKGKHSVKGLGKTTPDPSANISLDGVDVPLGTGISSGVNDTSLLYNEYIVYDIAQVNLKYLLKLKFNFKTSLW

The term IC50 denotes the concentration at which inhibition is half-maximal. Low readings indicate greater potency in that assay, high ones weaker potency in that assay. For `Cc1cccc2c1CCNC2=O`, the IC50 in data set [1] came out at 0.15 µM.

In turn, `COc1cccc(C(N)=O)c1` yielded a half-inhibitory concentration (IC50) in data set [1] of 30 µM. On the same count and under the same terms, for `O=C1NCCc2c(OCCCCN3CCCCC3)cccc21` the value was 0.15 µM. As a reminder, the solubility is how much of the substance goes into solution per volume. A low value points to little dissolved substance. Compound `CNCc1ccc(-c2cc3cc(F)cc(C(N)=O)c3o2)cc1.Cl` displayed a solubility in data set [2] above 35 mg/mL. The term bioavailability denotes dose-corrected exposure relative to a reference, in per cent. Regarding `O=C(c1cc(Cc2n[nH]c(=O)c3ccccc23)ccc1F)N1CCn2nc(C(F)(F)F)nc2C1` [FLUZOPARIB], in data set [3], the bioavailability is 35.8%. What is called Ki is a dissociation constant, usually derived from enzyme kinetics or from competition with a known ligand. Regarding `O=C1CCC(=O)N1c1cc(Cc2n[nH]c(=O)c3ccccc23)ccc1F`, the Ki in data set [1] came to 0.012 µM.
